Experimental data taken from patent US20220395007A1, “TASTE MODULATING COMPOUNDS AND METHODS OF IMPROVING THE QUALITY OF FOODS AND BEVERAGES” (Ohio State Innovation Foundation, priority 2019, published 2022).

How the values were obtained:
[1] = tested on: taste attributes in isolation; experiment: Taste attributes of the compounds in isolation, by consensus of experienced sensory panelists; assay type: in vivo, human; details: same concentrations as in coffee, 5 experienced panelists by consensus
Procedure: The taste attributes 4-CQA, 5-CQA, and 2-GA in isolation were further evaluated by 5 experienced sensory panelists by consensus. Each compound was dissolved in 5 mL nanopure water and 5 mL buffer (0.05 M sodium phosphate butter adjusted to pH 5.77 with 0.1 M citric acid) at the same concentrations described above. […] This led to the confirmation that 4-CQA, 5-CQA, and 2-O-β-D-glucopyranosyl-atractyligenin were bitter modulators that suppressed perception.

[2] = tested on: perceived bitterness intensity of a coffee rated as having a high bitter intensity; experiment: Sensory panel evaluation of perceived bitterness intensity of coffee brew; assay type: in vivo, human; details: compound added individually to high-bitter coffee (4-CQA about 177 mg/L, 5-CQA about 181 mg/L, 2-GA about 45 mg/L); eight trained panelists, nose clips, room temperature, duplicate; p<0.05
Procedure: 4-CQA (4-caffeoylquinic acid) (about 177 mg/L), 5-CQA (5-caffeoylquinic acid) (about 181 mg/L), and 2-GA (2-O-β-D-glucopyranosyl-atractyligenin) (about 45 mg/L) were added individually or as a group to a coffee rated as having a high bitter intensity. Five mL of each sample at room temperature was presented to experienced sensory panelists in 1 oz black cups labeled with 3-digit codes in random order. Eight trained panelists, recruited by Flavor Research and Education Center (FREC) at The Ohio State University, used nose clips during the evaluation in order to prevent interactions with olfactory responses. Between samples, panelists waited a minimum of 90 seconds and were asked to cleanse their palate using crackers and water. All evaluations were conducted in duplicate using Compusense Cloud software (Compusense Inc., Guelph, ON, Canada). […] FIGS. 1 and 2.

[3] = dissolved in 5 mL buffer (0.05 M sodium phosphate adjusted to pH 5.77 with 0.1 M citric acid)
[4] = dissolved in 5 mL nanopure water

Compound	taste attribute in isolation [1, 3]	taste attribute in isolation [1, 4]	perceived bitterness intensity of the coffee brew [2]
C=C1[C@@H]2CCC3[C@@](CC[C@@H]4[C@H](C(=O)O)C[C@@H](O[C@@H]5O[C@H](CO)[C@@H](O)[C@H](O)[C@H]5O)C[C@@]34C)(C2)[C@H]1O (stereo partly drawn) [2-GA, 2-O-β-D-glucopyranosyl-atractyligenin]	no obvious taste character	no obvious taste character	significantly reduce
O=C(/C=C/c1ccc(O)c(O)c1)O[C@H]1C(O)C[C@](O)(C(=O)O)C[C@H]1O (stereo partly drawn) [4-CQA, 4-O-caffeoylquinic acid]	very weak sour taste	very weak sour taste	significantly reduce
O=C(/C=C/c1ccc(O)c(O)c1)O[C@@H]1C[C@@](O)(C(=O)O)C[C@@H](O)[C@@H]1O [5-CQA, 5-O-caffeoylquinic acid]	very weak sour taste	very weak sour taste	significantly reduce
